Reference: ChEMBL document CHEMBL3886147 (2015)
Where “and” joins values, the source holds several entries; their conditions need not be identical. Identical values can stand only once.

Tests used:
Beta-lactamase = Beta-lactamase (Escherichia coli K-12, UniProt P00811); assay: (§1) Assays are performed with beta -lactamases expressed in the pET system (Novagen, San Diego, Calif.) without signal peptides. They contain an N-terminal hexa-Histidine tag that is used for purification on Ni-NTA (Qiagen, Hilden, Germany). The compounds are prepared as 50 mM stocks in DMSO and diluted into buffer P1 (50 mM phosphate, pH 7) to a final concentration of 10% DMSO. All further dilutions are done in P2 (P1 with 10% DMSO). Enzyme and compound dilutions are pre-incubated for 10 min at 37 C. and the reaction is started with the addition of pre-warmed (37 C.) nitrocefin at a final concentration of […]. The change in absorption at 490 nm is followed at 37 C. for 10 min with 30 s intervals.
Chain of Beta-lactamase (P00811 whole entry): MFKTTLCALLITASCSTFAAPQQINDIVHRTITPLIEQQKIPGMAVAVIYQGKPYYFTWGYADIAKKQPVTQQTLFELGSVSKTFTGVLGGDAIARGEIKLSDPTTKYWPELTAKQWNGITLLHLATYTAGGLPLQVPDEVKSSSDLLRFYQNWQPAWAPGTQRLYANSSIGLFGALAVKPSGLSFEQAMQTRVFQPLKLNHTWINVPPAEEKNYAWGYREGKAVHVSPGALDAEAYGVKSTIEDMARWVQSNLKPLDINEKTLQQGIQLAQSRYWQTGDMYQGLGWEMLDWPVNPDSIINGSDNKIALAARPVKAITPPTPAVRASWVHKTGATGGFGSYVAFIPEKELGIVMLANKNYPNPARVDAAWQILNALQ

Beta-lactamase TEM = Beta-lactamase TEM (Bacteria, UniProt P62593); assay: as §1
Chain of Beta-lactamase TEM (P62593 whole entry): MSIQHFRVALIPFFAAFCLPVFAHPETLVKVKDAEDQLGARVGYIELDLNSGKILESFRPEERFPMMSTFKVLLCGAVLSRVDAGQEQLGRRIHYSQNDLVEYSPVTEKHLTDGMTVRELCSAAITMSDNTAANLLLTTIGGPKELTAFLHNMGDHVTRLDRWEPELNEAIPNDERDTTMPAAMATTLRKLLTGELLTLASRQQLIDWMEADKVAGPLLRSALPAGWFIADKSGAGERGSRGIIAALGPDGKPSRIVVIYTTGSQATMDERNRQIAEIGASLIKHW

Row | Compound | IC50 (Beta-lactamase) | IC50 (Beta-lactamase TEM) [nM]
1 | CC1CC(=C2O[C@@H]3CC(=O)N3C2C(=O)O)C(=O)O1 (single isomer, unassigned) | 6080 nM | 
2 | CC1C/C(=C2\O[C@@H]3CC(=O)N3C2C(=O)OCc2ccccc2)C(=O)O1 (single isomer, unassigned) | 1070 nM and 301 nM | 
3 | [N-]=[N+]=NCC1C/C(=C2\O[C@@H]3CC(=O)N3C2C(=O)OCc2ccccc2)C(=O)O1 (stereo not given in full) | 305 nM | 
4 | COC(=O)C1/C(=C2/CC(CI)OC2=O)O[C@@H]2CC(=O)N12 (stereo not given in full) | 126 nM | 3.5
